US7517890B2, “GTPase inhibitors and methods of use” (Children's Hospital Medical Center, priority 2003, dated 2009)

How the values were obtained:
[1] = target: PDZ-RhoGEF-stimulated mantGDP/GTP exchange of RhoA (Homo sapiens, UniProt P61586); assay: In vitro guanine nucleotide exchange assay (mant-GDP), RhoA / PDZ-RhoGEF; format: biochemical; details: 200 μM compound
Method: In vitro guanine nucleotide exchange assay. For these, 200 nM Rac1 loaded with mant-GDP is incubated at 25° C. in an exchange buffer containing 100 mM NaCl, 5 mM MgCl2, 50 mM Tris-HCl (pH 7.6), and 0.5 mM GTP in the absence or presence of 200 nM Trio. The mant-GDP fluorescence changes in the course of the exchange reactions are monitored with an excitation wavelength at 360 nm and the emission wavelength at 440 nm by a Cary Ellipse fluorescence spectrometer (Varian, Inc.).
In FIG. 3. […] In FIG. 3A, NSC23766 inhibited TrioN catalyzed GDP/GTP exchange of Rac1 in a dose dependent manner. 200 nM Rac1 loaded with mant-GDP was incubated at 25° C. in an exchange buffer containing 100 mM NaCl, 5 mM MgCk2, 50 mM Tris-HCl (PH 7.6), and 0.5 mM GTP in the absence (top line) or presence of 100 nM TrioN. Increasing concentrations of NSC23766 were included in the exchange buffer as indicated. In FIG. 3B, NSC23766 had no effect on the Intersectin-stimulated GDP/GTP exchange of Cdc42. 200 nM Cdc42 loaded with mant-GDP was incubated in the exchange buffer in the absence (top line) or presence of 100 nM Intersectin with or without 200 μM NSC23766. In FIG. 3C, the exchange reaction of RhoA catalyzed by PDZ-RhoGEF was carried out similarly in the presence or absence of 200 μM NSC23766.

[2] = test system: PC-3 cells; assay: Matrigel cell invasion assay; details: 25 μM compound, 24 hrs
Method: Cell invasion assays. The cell invasion assays are performed using 6.4-mm Biocoat Matrigel invasion chambers with 8.0-micron pore size PET membrane (Becton-Dickinson) according to the manufactory instructions. Briefly, 5×10^4 cells are resuspended in 0.5 ml of serum free culture medium and added to the upper chamber. 10% fetal bovine serum in the culture medium is used as a chemo-attractant in the lower chamber. After the cells are incubated for overnight, the number of cell passed through the Matrigel is counted.
Cells invaded through Matrigel matrix were visualized with Giemasa staining.

[3] = test system: PC-3 cells; assay: Anchorage independent growth of PC-3 cells in soft agar
Excerpt: Anchorage independent growth.
The cells were split in triplicate in 96-wells at 1.5×10^3 cells per well.

[4] = target: T1, RhoA binding to PDZ-RhoGEF (Homo sapiens, UniProt P61586); assay: Complex formation assay, RhoA with PDZ-RhoGEF; details: varying concentrations of compound
T1 construct: made in house; host or cells: Cos-7 (PDZ-RhoGEF, used as lysate)
T1 sequence (P61586 whole entry): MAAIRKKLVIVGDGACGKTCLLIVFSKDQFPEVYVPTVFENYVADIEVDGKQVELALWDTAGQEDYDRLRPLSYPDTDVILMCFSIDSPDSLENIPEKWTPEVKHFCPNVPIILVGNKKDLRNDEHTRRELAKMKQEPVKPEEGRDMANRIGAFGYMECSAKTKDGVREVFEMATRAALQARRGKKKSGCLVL
Method: Trio and Tiam-1 co-precipitate with GST-Rac1, but not GST or GST-Cdc42.
In FIG. 2A, 0.5 μg of (His)6-tagged TrioN was incubated with GST alone or nucleotide-free, GST-fused Cdc42 or Rac1 (2 μg) in the binding buffer containing different concentrations of NSC23766 and 10 μl suspended glutathione-agarose. After an incubation at 4° C. for 30 minutes, the beads associated (His)6-TrioN were detected by anti-His Western blotting. The blots were quantified by densitometry analysis. The results are representative of three measurements. In FIG. 2B, myc-tagged Tiam1 expressed in Cos-7 cell lysates were incubated with (His)6-Rac1 in the presence of increasing concentrations of NSC23766. The association of Rac1 with Tiam1 was examined by anti-His blot after anti-myc immunoprecipitation. In FIG. 2C, the AU-tagged PDZ-RhoGEF was expressed in Cos-7 lysates and incubated with GST or GST-RhoA in the presence of varying concentrations of NSC23766. The RhoA associated PDZ-RhoGEF was probed with anti-AU antibody after affinity precipitation by glutathione agarose beads. In FIG. 2D, (His)6-Rac1 loaded with GTPγ S was incubated with GST-BcrGAP or GST-PAK1 (PBD) in the presence or absence of 200 μM NSC23766 and the interaction with GSTBcrGAP or GST-PAK1 was probed by anti-His blot after affinity precipitation by glutathione agarose beads.

[5] = test system: NIH 3T3 cells; assay: Cell growth assay, wild type and RacL61- or GEF-transfected NIH 3T3 cells; format: cell-based; details: 5% serum, 100 μM compound
[6] = test system: Swiss 3T3 cells; assay: Immunofluorescence of PDGF-stimulated lamellipodia formation (actin staining); details: for PDGF induction of lamellipodia at the cell edges in the presence of compound: 100 μM compound, 10 nM PDGF
Method: Immunofluorescence. […] The cellular actin is stained with TRITC-labeled phalloidin (Sigma) at 10 μg/ml in PBS for 40 min at room temperature. The actin and cell morphological changes are visualized by fluorescence microscopy.
The cells were fixed and stained with Rhodamine-labeled phalloidin.

[7] = test system: Tiam1-expressing NIH 3T3 cells; assay: Transformation of GEF-expressing NIH 3T3 cells (foci, soft agar); format: cell-based; details: foci: 50 μM every two days, 14 days, soft agar: 100 μM
[8] = test system: PC-3 cells; assay: PC-3 cell growth (CellTiter 96 AQueous assay); details: 5% serum, indicated concentrations of compound
Method: Cell growth assay. […] The growth rate of the prostate PC-3 cells is measured by the CellTiter 96 AQueous assay (Promega). 1,500 cells/well in 200 μl of 5% FBS medium are plated in 96-well plates and are grown under normal conditions. Cultures are assayed in 0, 1, 2, 3, 4, or 5 days by the addition of 20 μl of the combined MTS/PMS solution followed by incubation for one hour at 37° C. Absorbency is measured at a wavelength of 490 nm on an automated microplate reader.
The cells were split in triplicate in 96-wells at 1.5×10^3 cells per well. Cell numbers were assayed by using CellTiter 96 AQueous cell proliferation assay kit in different days.

[9] = target: endogenous RhoA (Mus musculus, UniProt Q9QUI0); assay: Endogenous Rho GTPase activity assay (GST-Rhotekin pull-down), RhoA in NIH 3T3 cells; details: NIH 3T3 cells in 10% serum
Chain of endogenous RhoA (Q9QUI0 whole entry): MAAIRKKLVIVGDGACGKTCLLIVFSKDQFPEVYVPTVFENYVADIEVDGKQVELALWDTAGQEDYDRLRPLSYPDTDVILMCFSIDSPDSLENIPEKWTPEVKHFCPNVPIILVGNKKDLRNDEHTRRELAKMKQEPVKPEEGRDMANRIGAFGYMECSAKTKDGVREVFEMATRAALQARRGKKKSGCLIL
Method: Endogenous Rho GTPase activity assay. […] Cells are grown in log phase in a 10 cm dish, and are starved in 0.5% serum medium or indicated otherwise for 24 hrs prior to lysis in a buffer containing 20 mM Tris-HCl (pH 7.6), 100 mM NaCl, 10 mM MgCl2, 1% NP-40, 10% glycerol, and 1× proteases inhibitor cocktail (Roch). Lysates are clarified and the protein concentrations are normalized. The cell lysates containing equal amount of proteins are incubated with 10 μg GST- or His6-fusion probes for 40 min at 4° C. under constant rotation. The beads are washed twice with the lysis buffer, and the bound-Rho GTPases are detected by anti-Rac1 (Upstate), or anti-Cdc42 (BD Transduction Laboratories) Western blotting. Quantification of the Western blots is carried out using a LAS-1000 luminescent image analyzer (Fujifilm medical system, USA, Inc.).
Cell lysates containing similar amount of Rac1, Cdc42 or RhoA were incubated with the agarose immobilized GST-PAK1, GST-WASP or GST-Rhotekin, and the co-precipitates were subjected to anti-Rac1, Cdc42 or RhoA Western blot analysis to reveal the amount of GTP-Bound Rho proteins.

Chain of PDZ-RhoGEF-stimulated mantGDP/GTP exchange of RhoA (P61586 whole entry): as the sequence (P61586 whole entry) above

With CCN(CC)CCCC(C)Nc1nc(C)cc(Nc2ccc3nc(C)cc(N)c3c2)n1 (stereo not drawn) [compound 23766, N^6-(2-((4-(diethylamino)-1-methylbutyl)amino)-6-methyl-4-pyrimidinyl)-2-methyl-4,6-quinolinediamine] the “effect on PDZ-RhoGEF-stimulated mantGDP/GTP exchange of RhoA” value [1] was “little impact”, the PC-3 cell invasion [2] was “significantly inhibits” and the “size of colonies of treated cells versus untreated” value [3] was “much smaller”. The colony-forming activity remaining ([3]; 25 μM compound) was “Approximately 10%”, the colony-forming activity remaining ([3]; 50 μM compound) was roughly 1% and the “effect on RhoA binding to PDZ-RhoGEF” value [4] was “does not interfere”. For the same molecule, the “growth of wild type NIH 3T3 cells” value [5] was “slow the growth”, the “growth rate of Rac1L61 expressing NIH 3T3 cells” value [5] was “no effect” and the “cell growth induced by the Rac specific GEF Trio” value ([5]; GEF expressing NIH 3T3 cells) was “capable of inhibiting”. The PDGF-stimulated lamellipodia formation ([6]; 50 μM compound, overnight serum starvation, 10 nM PDGF (FIG. 4C legend)) was “inhibited PDGF-stimulated lamellipodia formation”, the “PDGF induction of lamellipodia at the cell edges in the presence of compound” value ([6]; 5 min) was “only marginally effective” and the “PDGF induction of lamellipodia at the cell edges in the presence of compound” value ([6]; 10 min) was “completely ineffective”. The “Rac GEF stimulated cell growth and transformation” value [7] was “specifically inhibited”, the “proliferation rates of PC-3 cells” value [8] was “inhibited by compound 23766 in a dose dependent manner” and the “level of RhoA-GTP in cells” value [9] was “slightly increased level”.
